According to the kinase profiling compilation of Christmann-Franck et al. (2016):

Legend:
BRSK2 (human) = BRSK2 (human) (UniProt Q8IWQ3)
CSK (human) = CSK (human) (UniProt P41240)
CSNK1D (human) = CSNK1D (human) (UniProt P48730)
CSNK2A1 (human) = CSNK2A1 (human) (UniProt P68400)
CaMK1 (human) = CaMK1 (human) (UniProt Q14012)
DYRK1A (human) = DYRK1A (human) (UniProt Q13627)
EEF2K (human) = EEF2K (human) (UniProt O00418)
EPHA2 (human) = EPHA2 (human) (UniProt P29317)
INSRR (human) = INSRR (human) (UniProt P14616)
LCK (mouse) = conditions: accession and sequence are those of the human protein
MAPK1 (human) = MAPK1 (human) (UniProt P28482)
MAPK13 (human) = MAPK13 (human) (UniProt O15264)
MAPK14 (human) = MAPK14 (human) (UniProt Q16539)
MAPK15 (human) = MAPK15 (human) (UniProt Q8TD08)
MAPK3 (human) = MAPK3 (human) (UniProt P27361)
MKNK1 (human) = MKNK1 (human) (UniProt Q9BUB5)
NEK2 (human) = NEK2 (human) (UniProt P51955)
PAK6 (human) = PAK6 (human) (UniProt Q9NQU5)
PAK7 (human) = PAK7 (human) (UniProt Q9P286)
PHKG1 (human) = PHKG1 (human) (UniProt Q16816)
PIM2 (human) = PIM2 (human) (UniProt Q9P1W9)
PIM3 (human) = PIM3 (human) (UniProt Q86V86)
RPS6KA1 KD1 KD2 (human) = RPS6KA1 KD1 KD2 (human) (UniProt Q15418)
RPS6KA3 KD1 KD2 (human) = RPS6KA3 KD1 KD2 (human) (UniProt P51812)
RPS6KA5 KD1 KD2 (human) = RPS6KA5 KD1 KD2 (human) (UniProt O75582)
[1] = test system: RPS6KB1 (human), P23443 [T412E]
[2] = test system: SGK1 (human), O00141 [S422D]
SRC (human) = SRC (human) (UniProt P12931); conditions: compound 10.0 µM
YES1 (human) = YES1 (human) (UniProt P07947)
PI4KA (human) = PI4KA (human) (UniProt P42356)
PI4KB (human) = PI4KB (human) (UniProt Q9UBF8)
PIK3C2A (human) = PIK3C2A (human) (UniProt O00443)
PIK3C2B (human) = PIK3C2B (human) (UniProt O00750)
PIK3C3 (human) = PIK3C3 (human) (UniProt Q8NEB9)

Sequence of CSK (human) (P41240 whole entry, looked up): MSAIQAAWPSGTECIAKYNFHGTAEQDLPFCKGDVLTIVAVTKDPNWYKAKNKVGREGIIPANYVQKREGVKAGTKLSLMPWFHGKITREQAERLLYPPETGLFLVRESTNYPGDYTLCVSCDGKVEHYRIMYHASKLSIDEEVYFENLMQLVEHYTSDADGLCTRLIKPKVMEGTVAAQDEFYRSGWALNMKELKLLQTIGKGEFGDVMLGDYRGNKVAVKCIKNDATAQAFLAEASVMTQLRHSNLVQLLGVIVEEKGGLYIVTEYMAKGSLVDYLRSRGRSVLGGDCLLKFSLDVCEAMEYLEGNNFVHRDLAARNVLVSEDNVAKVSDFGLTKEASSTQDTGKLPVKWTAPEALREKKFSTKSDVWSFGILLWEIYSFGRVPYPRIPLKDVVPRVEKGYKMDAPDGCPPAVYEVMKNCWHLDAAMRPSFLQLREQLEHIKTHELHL
Sequence of RPS6KA1 KD1 KD2 (human) (Q15418 whole entry, looked up): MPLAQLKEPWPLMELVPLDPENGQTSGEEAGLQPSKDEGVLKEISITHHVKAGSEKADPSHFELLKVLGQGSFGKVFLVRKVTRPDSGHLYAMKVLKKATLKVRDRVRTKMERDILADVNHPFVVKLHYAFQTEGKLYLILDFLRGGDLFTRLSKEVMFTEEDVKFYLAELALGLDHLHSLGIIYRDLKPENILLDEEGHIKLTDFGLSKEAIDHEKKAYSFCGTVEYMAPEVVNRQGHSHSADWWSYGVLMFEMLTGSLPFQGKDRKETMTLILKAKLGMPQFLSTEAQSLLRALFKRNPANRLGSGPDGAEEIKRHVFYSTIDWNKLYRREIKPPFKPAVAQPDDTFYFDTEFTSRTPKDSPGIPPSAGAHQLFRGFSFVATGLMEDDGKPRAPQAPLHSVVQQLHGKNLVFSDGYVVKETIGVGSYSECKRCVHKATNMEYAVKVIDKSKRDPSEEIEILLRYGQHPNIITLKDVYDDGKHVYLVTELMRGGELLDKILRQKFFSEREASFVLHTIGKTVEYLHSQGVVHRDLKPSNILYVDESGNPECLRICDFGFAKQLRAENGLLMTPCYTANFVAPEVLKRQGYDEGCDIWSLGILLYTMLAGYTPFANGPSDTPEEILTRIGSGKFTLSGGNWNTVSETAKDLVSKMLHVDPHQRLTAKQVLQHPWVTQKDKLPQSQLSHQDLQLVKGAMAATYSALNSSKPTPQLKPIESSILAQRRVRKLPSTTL
Sequence of EEF2K (human) (O00418 whole entry, looked up): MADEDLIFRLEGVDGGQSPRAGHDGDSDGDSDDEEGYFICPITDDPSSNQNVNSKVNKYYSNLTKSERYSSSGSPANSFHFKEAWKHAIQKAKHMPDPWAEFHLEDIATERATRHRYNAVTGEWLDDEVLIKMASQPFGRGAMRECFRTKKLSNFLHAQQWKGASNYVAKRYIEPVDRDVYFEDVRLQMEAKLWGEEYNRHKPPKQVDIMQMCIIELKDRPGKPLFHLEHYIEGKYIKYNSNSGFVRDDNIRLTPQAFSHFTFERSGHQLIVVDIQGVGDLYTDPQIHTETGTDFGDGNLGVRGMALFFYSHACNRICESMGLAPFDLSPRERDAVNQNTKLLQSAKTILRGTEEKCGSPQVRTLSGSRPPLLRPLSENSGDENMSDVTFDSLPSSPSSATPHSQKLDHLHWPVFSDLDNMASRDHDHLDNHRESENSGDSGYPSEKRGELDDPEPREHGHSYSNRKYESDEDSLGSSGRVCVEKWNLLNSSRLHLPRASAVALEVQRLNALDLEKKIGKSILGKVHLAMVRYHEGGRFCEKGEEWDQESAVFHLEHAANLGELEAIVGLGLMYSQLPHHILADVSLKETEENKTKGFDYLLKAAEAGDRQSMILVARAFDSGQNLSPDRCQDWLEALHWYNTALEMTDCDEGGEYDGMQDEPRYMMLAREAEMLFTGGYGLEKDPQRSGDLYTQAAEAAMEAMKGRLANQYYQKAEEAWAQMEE
Sequence of PAK6 (human) (Q9NQU5 whole entry, looked up): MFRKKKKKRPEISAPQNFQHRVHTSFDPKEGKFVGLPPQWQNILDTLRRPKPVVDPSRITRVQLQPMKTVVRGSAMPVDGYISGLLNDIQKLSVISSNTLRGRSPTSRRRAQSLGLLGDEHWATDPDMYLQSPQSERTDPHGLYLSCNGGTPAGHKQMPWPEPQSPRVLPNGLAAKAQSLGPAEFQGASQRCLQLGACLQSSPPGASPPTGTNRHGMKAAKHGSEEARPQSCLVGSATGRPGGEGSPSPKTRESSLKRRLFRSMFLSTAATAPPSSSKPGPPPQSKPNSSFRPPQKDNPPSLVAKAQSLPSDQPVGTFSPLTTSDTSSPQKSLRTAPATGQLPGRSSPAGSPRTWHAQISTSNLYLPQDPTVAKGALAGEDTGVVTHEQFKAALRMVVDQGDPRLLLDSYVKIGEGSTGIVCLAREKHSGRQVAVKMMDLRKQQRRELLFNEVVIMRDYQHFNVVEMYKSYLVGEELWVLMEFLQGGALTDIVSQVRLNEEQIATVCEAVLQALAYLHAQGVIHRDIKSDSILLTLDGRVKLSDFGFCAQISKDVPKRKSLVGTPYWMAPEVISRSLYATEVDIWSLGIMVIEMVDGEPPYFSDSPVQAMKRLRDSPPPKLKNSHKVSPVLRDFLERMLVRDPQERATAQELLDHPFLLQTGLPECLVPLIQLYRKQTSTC
Sequence of YES1 (human) (P07947 whole entry, looked up): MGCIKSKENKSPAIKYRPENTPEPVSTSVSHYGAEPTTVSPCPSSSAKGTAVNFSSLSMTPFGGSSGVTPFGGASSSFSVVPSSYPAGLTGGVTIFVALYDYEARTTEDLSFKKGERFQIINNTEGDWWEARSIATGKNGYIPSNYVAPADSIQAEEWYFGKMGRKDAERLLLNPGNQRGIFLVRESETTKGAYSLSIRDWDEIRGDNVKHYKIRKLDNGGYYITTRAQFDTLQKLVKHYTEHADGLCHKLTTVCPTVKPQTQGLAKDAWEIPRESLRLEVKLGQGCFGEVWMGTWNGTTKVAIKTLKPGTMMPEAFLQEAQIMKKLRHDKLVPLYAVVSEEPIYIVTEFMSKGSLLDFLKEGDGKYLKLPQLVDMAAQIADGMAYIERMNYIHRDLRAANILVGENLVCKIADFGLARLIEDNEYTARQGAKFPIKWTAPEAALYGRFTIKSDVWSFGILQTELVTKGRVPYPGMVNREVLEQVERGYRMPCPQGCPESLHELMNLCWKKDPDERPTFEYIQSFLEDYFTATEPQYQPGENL
Sequence of RPS6KA5 KD1 KD2 (human) (O75582 whole entry, looked up): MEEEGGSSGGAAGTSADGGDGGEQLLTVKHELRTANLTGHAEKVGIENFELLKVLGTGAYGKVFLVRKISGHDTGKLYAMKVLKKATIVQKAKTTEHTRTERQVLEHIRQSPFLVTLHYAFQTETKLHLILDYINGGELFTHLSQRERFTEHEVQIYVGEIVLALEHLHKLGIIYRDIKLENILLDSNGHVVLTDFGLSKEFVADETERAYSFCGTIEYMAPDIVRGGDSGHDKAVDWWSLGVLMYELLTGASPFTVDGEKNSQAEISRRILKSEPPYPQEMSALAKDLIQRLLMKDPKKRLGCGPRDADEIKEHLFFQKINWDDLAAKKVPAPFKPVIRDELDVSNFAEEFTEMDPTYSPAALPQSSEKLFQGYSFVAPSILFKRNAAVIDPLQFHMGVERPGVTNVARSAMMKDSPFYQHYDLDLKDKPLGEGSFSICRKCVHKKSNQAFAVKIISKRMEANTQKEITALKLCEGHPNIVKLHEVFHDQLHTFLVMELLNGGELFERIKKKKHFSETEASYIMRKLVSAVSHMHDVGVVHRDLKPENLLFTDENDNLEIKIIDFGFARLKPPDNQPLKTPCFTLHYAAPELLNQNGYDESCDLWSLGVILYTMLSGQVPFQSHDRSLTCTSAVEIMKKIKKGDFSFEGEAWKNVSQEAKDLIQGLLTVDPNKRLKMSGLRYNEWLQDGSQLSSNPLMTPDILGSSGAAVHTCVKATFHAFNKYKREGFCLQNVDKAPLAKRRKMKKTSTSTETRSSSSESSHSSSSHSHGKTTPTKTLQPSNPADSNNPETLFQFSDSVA
Sequence of PHKG1 (human) (Q16816 whole entry, looked up): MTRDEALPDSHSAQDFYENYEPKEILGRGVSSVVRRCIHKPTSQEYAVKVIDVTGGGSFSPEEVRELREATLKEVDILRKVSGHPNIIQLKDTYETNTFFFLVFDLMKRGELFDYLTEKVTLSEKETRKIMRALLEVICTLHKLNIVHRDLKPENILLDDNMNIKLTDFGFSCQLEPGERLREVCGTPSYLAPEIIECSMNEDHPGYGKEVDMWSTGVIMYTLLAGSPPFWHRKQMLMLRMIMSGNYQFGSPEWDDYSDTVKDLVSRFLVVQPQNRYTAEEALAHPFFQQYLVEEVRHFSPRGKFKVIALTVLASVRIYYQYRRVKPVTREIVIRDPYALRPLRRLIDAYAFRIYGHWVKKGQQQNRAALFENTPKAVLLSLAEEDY
Sequence of CaMK1 (human) (Q14012 whole entry, looked up): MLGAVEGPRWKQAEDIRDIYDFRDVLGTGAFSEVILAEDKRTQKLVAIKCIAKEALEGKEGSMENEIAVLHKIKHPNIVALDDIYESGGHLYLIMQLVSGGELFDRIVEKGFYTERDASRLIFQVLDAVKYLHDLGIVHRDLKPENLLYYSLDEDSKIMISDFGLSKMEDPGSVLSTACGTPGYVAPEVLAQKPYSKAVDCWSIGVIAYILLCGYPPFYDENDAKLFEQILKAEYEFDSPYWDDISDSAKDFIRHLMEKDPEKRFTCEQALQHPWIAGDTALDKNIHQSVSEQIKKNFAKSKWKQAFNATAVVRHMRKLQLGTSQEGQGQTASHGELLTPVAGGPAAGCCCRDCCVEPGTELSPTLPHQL

## COc1ccc(-c2ccc3c(N4CCOCC4)nc(N4C[C@@H](C)O[C@@H](C)C4)nc3n2)cc1CO
BRSK2 (human); compound 1.0 µM
  per cent of control: 90%
BRSK2 (human); compound 10.0 µM
  per cent of control: 72%
CSK (human); compound 1.0 µM
  per cent of control: 90%
CSK (human); compound 10.0 µM
  per cent of control: 99%
CSNK1D (human); compound 1.0 µM
  per cent of control: 112%
CSNK1D (human); compound 10.0 µM
  per cent of control: 109%
CSNK2A1 (human); compound 1.0 µM
  per cent of control: 104%
CSNK2A1 (human); compound 10.0 µM
  per cent of control: 85%
CaMK1 (human); compound 1.0 µM
  per cent of control: 96%
CaMK1 (human); compound 10.0 µM
  per cent of control: 101%
DYRK1A (human); compound 1.0 µM
  per cent of control: 94%
DYRK1A (human); compound 10.0 µM
  per cent of control: 80%
EEF2K (human); compound 1.0 µM
  per cent of control: 88%
EEF2K (human); compound 10.0 µM
  per cent of control: 108%
EPHA2 (human); compound 1.0 µM
  per cent of control: 108%
EPHA2 (human); compound 10.0 µM
  per cent of control: 96%
INSRR (human); compound 1.0 µM
  per cent of control: 105%
INSRR (human); compound 10.0 µM
  per cent of control: 71%
LCK (mouse); compound 1.0 µM
  per cent of control: 69%
LCK (mouse); compound 10.0 µM
  per cent of control: 104%
MAPK1 (human); compound 1.0 µM
  per cent of control: 102%
MAPK1 (human); compound 10.0 µM
  per cent of control: 92%
MAPK13 (human); compound 1.0 µM
  per cent of control: 72%
MAPK13 (human); compound 10.0 µM
  per cent of control: 87%
MAPK14 (human); compound 1.0 µM
  per cent of control: 101%
MAPK14 (human); compound 10.0 µM
  per cent of control: 96%
MAPK15 (human); compound 1.0 µM
  per cent of control: 88%
MAPK15 (human); compound 10.0 µM
  per cent of control: 92%
MAPK3 (human); compound 1.0 µM
  per cent of control: 102%
MAPK3 (human); compound 10.0 µM
  per cent of control: 87%
MKNK1 (human); compound 1.0 µM
  per cent of control: 111%
MKNK1 (human); compound 10.0 µM
  per cent of control: 75%
NEK2 (human); compound 1.0 µM
  per cent of control: 92%
NEK2 (human); compound 10.0 µM
  per cent of control: 86%
PAK6 (human); compound 1.0 µM
  per cent of control: 75%
PAK6 (human); compound 10.0 µM
  per cent of control: 100%
PAK7 (human); compound 1.0 µM
  per cent of control: 101%
PAK7 (human); compound 10.0 µM
  per cent of control: 81%
PHKG1 (human); compound 1.0 µM
  per cent of control: 89%
PHKG1 (human); compound 10.0 µM
  per cent of control: 116%
PIM2 (human); compound 1.0 µM
  per cent of control: 86%
PIM2 (human); compound 10.0 µM
  per cent of control: 78%
PIM3 (human); compound 1.0 µM
  per cent of control: 114%
PIM3 (human); compound 10.0 µM
  per cent of control: 75%
RPS6KA1 KD1 KD2 (human); compound 1.0 µM
  per cent of control: 100%
RPS6KA1 KD1 KD2 (human); compound 10.0 µM
  per cent of control: 86%
RPS6KA3 KD1 KD2 (human); compound 1.0 µM
  per cent of control: 103%
RPS6KA3 KD1 KD2 (human); compound 10.0 µM
  per cent of control: 104%
RPS6KA5 KD1 KD2 (human); compound 1.0 µM
  per cent of control: 101%
RPS6KA5 KD1 KD2 (human); compound 10.0 µM
  per cent of control: 117%
[1]; compound 1.0 µM
  per cent of control: 104%
[1]; compound 10.0 µM
  per cent of control: 98%
[2]; compound 1.0 µM
  per cent of control: 76%
[2]; compound 10.0 µM
  per cent of control: 64%
SRC (human)
  per cent of control: 86%
YES1 (human); compound 1.0 µM
  per cent of control: 94%
YES1 (human); compound 10.0 µM
  per cent of control: 90%
PI4KA (human)
  IC50: > 10 µM
PI4KB (human)
  IC50: > 10 µM
PIK3C2A (human)
  IC50: > 10 µM
PIK3C2B (human)
  IC50: > 10 µM
PIK3C3 (human)
  IC50: > 10 µM
